Results: patent US20110124745A1, “Switchable Anionic Surfactants and Methods of Making and Using Same” (priority 2009, published 2011)
Values joined by “and” are separate entries in the source; they are usually repeats but may differ in a detail not shown here. Equal entries are not always repeated.

Experiments:
Assay type in all cases: physicochemical
[1] = pH studies of ON and OFF surfactant solutions
Experimental: For pH studies described below, a pH meter (Orion 4 Star Conductivity Benchtop, available from ThermoElectron Corporation, Mass., USA) was used. The pH meter was calibrated before the measurements as per the instructions provided with the pH meter. All solutions were prepared using deionized water. All pH measurements were done at 25° C.
Surfactant solution was prepared by dissolving n-octyl 4-hydroxy-3-nitrobenzoate (0.443 g, 1.502 mmol) and anhydrous Na2CO3 (1.27 g, 12.02 mmol) in 150 mL of deionized water. The resultant solution was homogenized by sonication for 2 min. Aliquots (10.0 mL) of this solution were transferred into eleven different vials numbered as 1, 2, 3, 4, 5, 6, 7, 8, 9, 10, and 11 by Hamilton syringe. The level of the solution in each vial was marked using a marker. Stirring bars were introduced in vials 3 to 11. […] To turn the surfactant OFF, CO2 was slowly bubbled through a solution for 10 min (formation of the OFF form was observed by formation of light yellow solid precipitate). To turn the surfactant ON the solution was heated and stirred while immersed in an oil bath preset at 70° C., for 40 min. The solution in vial 2 was turned OFF. The solution in vial 3 was first turned OFF and then ON. The solution in vial 4 was first turned OFF then ON and finally OFF. After completion of the indicated cycle, each vial was first allowed to cool down to room temperature (if the cycle marked its completion with the surfactant in ON form), the solution was then diluted with deionized water. To be consistent with the previous experiments, all the vials were tightly capped (using […]™) and allowed to stand for 18 h at room temperature (see FIG. 2).

[2] = Switching efficiency by 1H NMR, method A ([(CH3)4N]I internal standard); settings: relative to (CH3)4NI set to 100
Excerpt: In both methods, to quantify the concentration of surfactant in solution, its ^1H NMR integration was compared to one of two internal standards of known concentration. In addition to the difference in which internal standard was used, the two methods can also be distinguished from each other on the basis of the timing of the addition of the internal standard. In method A, the standard remains in the solution during the process of switching. In method B, the switching is executed first and the DMF solution of known strength and quantity is added in to the solution.
In both methods, the surfactant was turned OFF with CO2 by positioning the needle that supplied the CO2 to the surfactant solution above the solution in such a way that the slow flow of CO2 was allowed to interact with the surfactant solution at the surface. The switching from ON to OFF required 5 min or less. Increasing the surface area, for example, by slightly tilting the vial, expedited the switching from ON to OFF. To turn the surfactant ON, the solution was stirred at 70° C. for 40 min as described above. After each ON cycle, 0.5 mL of D2O was added to the solution to compensate for the loss in the volume caused by evaporation.
The surfactant solution was prepared by combining 0.046 g of octyl 4-hydroxy-3-nitrobenzoate (1N) and 0.136 g of Na2CO3 in 16.0 mL of D2O. To this solution, 11.5 mg of [(CH3)4N]I was added. The resultant solution was homogenized by sonication for 2 min. […] Stirring bars were introduced in vials 3 to 11. […] The surfactant solutions were turned OFF and ON by the procedure described in Example 3.
As the standard, [(CH3)4N]I was added early into the surfactant solution. All the solutions were filtered and the ^1H NMR spectra of all these solutions were recorded. In all cases, the integration of [(CH3)4N]I was set to 100 and compared with the integration of aromatic proton at δ ˜7.3. […] Thus the concentration of the surfactant in these solutions was substantially zero. […] Thus the experimental results established that the surfactant turns ON and OFF with substantially 100% efficiency.

[3] = Surface tension studies (tensiometer measurements)
Experimental: A stock solution of compound (1A) was prepared by combining 0.460 g (1.559 mmol) of octyl 4-hydroxy-3-nitrobenzoate (1N) and 1.36 g (12.83 mmol) of Na2CO3 in 160 mL of deionized H2O. The resultant solution was homogenized by sonication for 2 min using a sonicating machine (model […], available from Fisher Scientific, Ottawa, Canada). 10 mL of the homogeneous solution was transferred into each of thirteen vials (13×10 mL, vial numbers: 1, 2, 2*, 3, 4, 5, 6, 7, 8, 9, 10, 11 and 12). The levels of solution in all the vials were marked using a marker pen on the outside of the vials. A stir bar was introduced in vials 2* through 12.
The solutions in each vial were turned OFF and back ON according to Table 1. […] In vials 2 and 2*, the surfactant was turned OFF. In vial 2*, following the OFF-turning, the uncapped vial contents were stirred at room temperature for 48 h.
Vials (other than vial 2*) were left at room temperature for 18 h prior to surface tension measurements. Where necessary, water was added to the vials until the total volume matched the original marked levels.
The contents of vials with even numbers (OFF) were filtered by passing them through a Kimwipe™ plug in a pipette to obtain a clear solution.
Surface tension for all solutions was measured in triplicate. The three values of surface tension for each solution remained within ±1 dynes/cm indicating good reproducibility. The tensiometer (Surface Tensiomat 21, Model 14814, available from Fischer Scientific, Ottawa, Canada) was calibrated using deionized water. The initial value of 72 dynes/cm obtained for water was acceptable within experimental error.

SMILES | pH when turned OFF ([1]; 0.01 M compound (1) + 0.08 M Na2CO3, after CO2 bubbling, 25° C.) | pH when turned ON ([1]; 0.01 M compound (1) + 0.08 M Na2CO3, after heating at 70° C. for 40 min, measured at 25° C.) | pH of Original stock solution (ON) ([1]; 0.01 M compound (1) neutral form + 0.08 M Na2CO3 in water, 25° C.) | average pH value of the solution in ON form ([1]; ON form after cycling) | pH of the solution ([1]; vial 1, control, never switched (ON), 1.502 mmol (1N) + 12.02 mmol Na2CO3 in 150 mL water) | pH of the solution ([1]; vials 3, 5, 7, 9, 11: cycles of Table 1 ending ON) | Proton integration at ~7.3 δ ([2]; D2O with Na2CO3, vial 1, control, never switched (ON)) | Proton integration at ~7.3 δ ([2]; D2O with Na2CO3, vials 3, 5, 7, 9, 11: ON/OFF cycles of Table 1 ending ON (70° C., 40 min)) | Average surface tension ([3]; 1.559 mmol (1N) + 12.83 mmol Na2CO3 in 160 mL water, vial 1, control, never switched (ON)) | average value of the surface tension over the ON vials ([3]; ON form, vials 1, 3, 5, 7, 9, 11) | Average surface tension ([3]; vial 2*: turned OFF, then stirred uncapped at room temperature for 48 h) | average pH value of the solutions in the OFF form ([1]; OFF form) | pH of the solution ([1]; vials 2, 4, 6, 8, 10: cycles of Table 1 ending OFF) | Proton integration at ~7.3 δ ([2]; filtered D2O solution, vials 2, 4, 6, 8, 10: cycles of Table 1 ending OFF (CO2)) | average value of the surface tension over the OFF vials ([3]; OFF form, vials 2, 4, 6, 8, 10, 12)
CCCCCCCCOC(=O)c1ccc(O)c([N+](=O)[O-])c1 [compound (1A), 2-nitro-4-(octyloxycarbonyl)phenolate] | 8.02 | 8.78 | 10.87 | 9.31 | 10.85 | 9.26 and 9.24 and 9.22 and 9.44 and 9.38 | 24 | 23 and 24 and 22 and 20 | 35 dynes/cm | 34 dynes/cm | 35 dynes/cm | – | – | – | –
CCCCCCCCOC(=O)c1ccc(O)c([N+](=O)[O-])c1 [compound (1N), octyl 4-hydroxy-3-nitrobenzoate] | – | – | – | – | – | – | – | – | – | – | – | 7.73 | 7.88 and 7.70 and 7.89 and 7.35 and 7.83 | 0 | 61 dynes/cm
